Experimental data: PMC10380584, “Functional Characterization of Pheromone Receptors in the Beet Webworm, Loxostege sticticalis (Lepidoptera: Pyralidae)” (Insects, 2023)

System: T1, LstiPR2/LstiORco
T1 construct: full-length LstiPR2 (ORF 1263 bp, printed 421 aa) co-expressed with LstiORco (cRNA 1:1) in Xenopus laevis oocytes, pT7Ts vector; cloned from male antennae; with Odorant receptor coreceptor
Test: two-electrode voltage clamp, Xenopus oocytes
Assay type: cell-based, Loxostege sticticalis
Details: agonist; co-expressed with LstiORco; holding potential -80 mV; Ringer's buffer pH 7.6
From the text: two-electrode voltage clamp, Xenopus oocytes on LstiPR2/LstiORco | LstiPR2/LstiORco was sensitive to E11-14:OAc

- EC50: 12.5 µM
SMILES: CC/C=C/CCCCCCCCCCOC(C)=O [E11-14:OAc, (E)-11-tetradecenyl acetate]
